Read-outs that look alike come from different tables or passages of the source.

Common to all, as to format: in vivo
The nature of data set [1]: Pharmacokinetics in serum after IV or IN administration. The note with it: 20 mg/kg, mice; for AUC(0-t) / Cmax / Tmax / k el / half-life: mouse, serum; for k el: read-out: Serum Ke (converted); for half-life: read-out: Serum t1/2 (converted). As for the experimental part: After tail vein injection or nasal administration, blood was collected at 5, 15 and 30 min, 1, 2, 4, 8, 12, 24, 48, 72, 120 and 168 h, for immediate centrifugation at 14,000 rpm for 5 min. The serum was harvested and stored at −20 °C until further processing. Brain tissue was collected and was thoroughly rinsed in saline to eliminate blood and blotted dry with filter paper. Each tissue sample was homogenized in saline (1:5, w/v) and stored at −20 °C until analysis. 50 μL of serum or 100 μL of brain tissue was put in a 1.5 mL EP tube, followed by the addition of 20 μL of internal standard solution (10 μM ISO). The protein was precipitated with 1 mL of ethyl acetate, vortexed for 5 min and centrifuged at 20,000 g (4 °C and 10 min). The supernatant solution was nitrogen blown to dry and re-suspended with 100 μL of 50% acetonitrile for centrifugation again. The supernatant was taken for analysis by using LC-MS/MS. HYP content was quantified using UHPLC-MS/MS system, which includes Agilent 1290 Infinity UHPLC, and Agilent 6460 Triple Quadrupole, equipped with an electrospray ionization interface used to generate positive ions for the determination of HYP. The compounds were analyzed by using the Agilent Zorbax Eclipse Plus C-18 column with a particle size of […] (flow rate: 0.35 mL/min). The mobile phase was set as follows: mobile phase A (0.1% formic acid in water) and mobile phase B (0.1% formic acid in ACN): 0–3 min, 10–30% B; 3–4 min, 70% B; 4–5 min, 30–70% B; 5–6 min, 70-10% B. The column and auto-sampler temperature were maintained at 30 °C and 4 °C, respectively. Data were analyzed by using Agilent MassHunter Workstation software B.01.03. The gas temperature was set at 300 °C with a flow rate of 11 L/min. Gases were set at 30 psi for the nebulizer, capillary, at 4000 V. For the HYP, the fragment was 170. The collision energy was set at 30; The mass transitions were as follows based on multiple reaction monitoring: m/z 464.38 → 299.9. For the Isorhamnetin (ISO), the fragment was 150. The collision energy was set at 30; The mass transitions were as follows based on multiple reaction monitoring: m/z 315.4 → 300.1, The measurements of HYP were done using the standard and linear least-squares regression curve.

Data set [2] deals with APP/PS1 mice. Nature of the data set: Fear-conditioning test. The note with it: HYP nasal, every 3 days, 8 weeks. As for the experimental part: All animal care and experimental procedures were performed in accordance with the “Institutional Animal Care and User Committee Guidelines” of the Macau University of Science and Technology. APP/PSEN1 (APP/PS1) mice (N000175) were purchased from the Nanjing Institute of Biomedical Sciences, Nanjing University, China, weighing 25 ± 5 g. The animals were housed in a temperature-controlled room with a 12 h light/dark cycle and given ad libitum food and water. Male mice were randomly divided into the following 6 experimental groups. (a) wild-type group (n = 6), (b) APP/PS1 group (n = 6), (c) HYP (20 mg/kg group) (n = 7), (d) HYP (40 mg/kg) group (n = 8), (e) HYP (80 mg/kg) group (n = 8) and (f) memantine (MEM) (10 mg/kg) positive control group (n = 8). HYP was dissolved in the solvent containing 10% DMSO, 40% PEG300 and 5% Tween-80 in PBS, and administrated via nasal injection for every 3 days with a volume of 0.5 μL/g of body weight for 8 consecutive weeks. The fear conditioning test measures the ability of mice to learn and remember associations between aversive experiences and the environment. On the first day of the fear conditioning test (Yuyan, Shanghai, China), mice were placed in a chamber for 5 min to acclimatize and explore. […] Responses were recorded with a video camera and scored for resting time, which was defined as the absence of any movement other than breathing.

Data set [3] concerns APP/PS1 mice. The experiment in a line: HE staining of hippocampus. The note with it: hippocampus CA1, CA3, DG, nasal HYP. As for the experimental part: All animal care and experimental procedures were performed in accordance with the “Institutional Animal Care and User Committee Guidelines” of the Macau University of Science and Technology. APP/PSEN1 (APP/PS1) mice (N000175) were purchased from the Nanjing Institute of Biomedical Sciences, Nanjing University, China, weighing 25 ± 5 g. The animals were housed in a temperature-controlled room with a 12 h light/dark cycle and given ad libitum food and water. Male mice were randomly divided into the following 6 experimental groups. (a) wild-type group (n = 6), (b) APP/PS1 group (n = 6), (c) HYP (20 mg/kg group) (n = 7), (d) HYP (40 mg/kg) group (n = 8), (e) HYP (80 mg/kg) group (n = 8) and (f) memantine (MEM) (10 mg/kg) positive control group (n = 8). HYP was dissolved in the solvent containing 10% DMSO, 40% PEG300 and 5% Tween-80 in PBS, and administrated via nasal injection for every 3 days with a volume of 0.5 μL/g of body weight for 8 consecutive weeks. Pathological assessment on the cornuammonis region 1 (CA1), cornuammonis region 3 (CA3) and dentate gyrus region (DG) regions of the mouse hippocampus was done by HE staining. Brain sections were dehydrated with 70%, 80% and 90% alcohol respectively. […]

With `O=c1c(O[C@@H]2O[C@H](CO)[C@H](O)[C@H](O)[C@H]2O)c(-c2ccc(O)c(O)c2)oc2cc(O)cc(O)c12` [HYP, Quercetin-3-O-β-D-galactopyranoside], the “Serum F (AUCIN/AUCIV ratio)” value in data set [1] (IN) came to 23.2%. For the same compound, in data set [1] (inhaled or intranasal, IN), the AUC(0-t) stood at 5500 ± 1220 µg·h/mL, the maximum concentration (Cmax) stood at 300 ± 102 µg/mL, the Tmax amounted to 0.5 h and the k el is 1.67e-05 s⁻¹. The half-life in data set [1] (inhaled or intranasal, IN) was 25.6 ± 12.5 h. For the same compound, in data set [1] (IV), the area under the curve AUC(0-t) was found to be 23700 ± 1740 µg·h/mL, the highest level (Cmax) was 1160 ± 268 µg/mL, the time of peak concentration (Tmax) was 0.08 h and the k el was 0.000103 s⁻¹. In addition, in data set [1] (IV), the half-life was 1.85 ± 1.25 h. In the data set on APP/PS1 mice [2], the “freezing time in fear conditioning test” value is “significantly decreased the freezing time”. The “neuronal cell morphology (HE staining)” value in the data set on APP/PS1 mice [3] is listed as “neuronal cell morphological changes were minimal”.

(Values after article PMC9975698, “Hyperoside alleviates toxicity of β-amyloid via endoplasmic reticulum-mitochondrial calcium signal transduction cascade in APP/PS1 double transgenic Alzheimer's disease mice” (Redox Biology, 2023).)
